Reference: patent publication US8084625B2, “Crosslinking agent, crosslinking method, method of controlling gene expression, and method of examining gene function” (Wako Pure Chemical Industries, Ltd., priority 2005, dated 2011)
Entries after “also recorded” stand apart in the source; their conditions may differ.

Experiments:
EGFP [1] = test: Effectiveness versus bis-Bhc-CH3 and Bhc-diazo, EGFP/DsRed cotransfection in Hela cells (Example 7); format: cell-based
Description: (§1) As shown in the following Table 5, 0.2 μl of the crosslinking agent solution and 0.20 μl of the siRNA solution were mixed together, and the mixture thus obtained was still held for 8 hours under light shielding conditions. Subsequently, Nos. 2, 4, and 6 were irradiated with UV (350 nm) for 3 minutes using Rayonet Photochemical Reactor manufactured by Southern N. E. Ultraviolet Co.

EGFP [2] = test: RNAi-effect inhibitory ability, EGFP/DsRed cotransfection in Hela cells (Example 5); format: cell-based; settings: crosslinking agent solution 4 μM reacted with siRNA 8 hours, no UV irradiation, 48 hours culture
Description: (§2) (1) Reagents • Hela cells (American Type Culture Collection (ATCC, Rockville, Md.)) • DMEM culture medium (Dullbecco's modified Eagle culture medium, Nissui 2, manufactured by Nissui Pharmaceutical Co., Ltd.) • Opti-MEM culture medium (manufactured by GIBCO) • Trypsin solution (0.38 mg/ml EDTA aqueous solution containing 2.5 mg of trypsin, manufactured by GIBCO) • LipofectAMINE 2000 (manufactured by Invitrogen) • pEGFP-N1 vector solution
(§3) Hela cells (500 μl of the DMEM culture medium containing Hela cells and 10% of FBS) were spread on a 24-hole plate so as to obtain 3×10^4 cells/well. After 24 hours passed, the old culture medium was removed, and Hela cells were then washed with a PBS(−) solution. Subsequently, the PBS(−) solution was removed, and 500 μl of the DMEM culture medium containing 10% of FBS was added per one well. This was used as a transfection Hela cell plate.
as §1, with “2,” for “5,”, “Co. […]” for “Co.”

Lamin B1 = test: Light irradiation control of endogenous gene, Western blotting of Lamin B1 protein in Hela cells (Example 10); format: cell-based
Description: as §2, with “Md.)” for “Md.))”, “siRNA” for “pEGFP-N1 vector”
as §3, with “of” for “of the”, “DMEM” for “DMEM culture medium”, “1×10^3” for “3×10^4”
Mixing between 4.6 μl of the crosslinking agent solution and 0.46 μl of the siRNA solution was performed, and the mixture thus obtained was still held for 8 hours under light shielding conditions.
After the culture was performed, by a Western blotting method, the amounts of a Lamin B1 protein of the individual samples were quantitatively measured. […]
In addition, from the results of the Western blotting, the amounts of the Lamin B1 protein of the samples were quantitatively measured. […]

EGFP [3] = test: Study in cell: local UV irradiation of transfected Hela cells, EGFP/DsRed (Example 8); format: cell-based
Description: as §3, with “of” for “of the”, “DMEM” for “DMEM culture medium”, “5×10^3” for “3×10^4”, “were” for “were then”
(§4) To 9.2 μl of the Opti-MEM culture medium, 0.8 μl of LipofectAMINE 2000 was added, and the culture medium thus processed was still held for 10 minutes.
Next, the above culture medium and the transfecting sample obtained by the above ii) were mixed together, and this mixture was still held for 20 minutes.
(§5) The mixture thus obtained was added to the transfection Hela cell plate prepared by the above (2) and was then cultured at 37° C. for 6 hours using a CO2 incubator (Automatic CO2 Incubators 5400, manufactured by NAPCO).
(§6) After the culture was performed, the culture medium was removed, and Hela cells were washed with a PBS(−) solution. Subsequently, the PBS(−) solution was removed, and 500 μl of the Opti-MEM culture medium was added per one well. […]
In addition, the observation results of the fluorescence images of EGFP and DsRed obtained by using the compound 3 of the present invention are shown in FIG. 6.

EGFP [4] = test: Influence of light irradiation and compound on RNAi, control siRNA (targeting luciferase), EGFP/DsRed in Hela cells (Example 9); format: cell-based
Description: The expression level obtained by transfection of siRNA which reacted with the compound of the present invention was low as that obtained by transfection of only EGFP. In order to investigate this reason, it was confirmed whether the transfection efficiency was degraded by the compound of the present invention or by the transfection itself of siRNA.
As shown in the following Table 8, 0.2 μl of the crosslinking agent solution and 0.20 μl of the siRNA solution or 0.20 μl of the control siRNA solution were mixed together, and the mixture thus obtained was still held for 8 hours under light shielding conditions.
as §4
Next, the above culture medium and the transfecting sample obtained by the above ii) or the control sample were mixed together, and this mixture was still held for 20 minutes.
as §5, §6

EGFP [5] = settings: compound 3 4 μM
Description: The crosslinking agent solution in an amount of 0.2 μl and the siRNA solution in an amount of 0.20 μl were mixed together, and the mixture thus formed was still held for 0, 1, 2, 4, 8, or 24 hours under light shielding conditions.
After the culture was performed, transmission images of cells, and fluorescent images of EGFP and DsRed were observed.
By using a Meta Morph Analysis software (manufactured by Meta Imaging Software), the total fluorescent areas of the respective EGFP and DsRed were measured, and the ratio of EGFP/DsRed was obtained.

[6] = Hela cells, regardless before and after UV irradiation, bis-Bhc-CH3 4 μM, Bhc-diazo 8 μM

For `Cc1cc(=O)oc2cc(OC(=O)CC(C)(C)CC(=O)OCCOC(=O)CC(C)(C)CC(=O)Oc3cc4oc(=O)cc(C)c4cc3Br)c(Br)cc12` [bis-Bhc-CH3, 3,3-dimethylglutaric acid (6-bromo-4-methyl-2-oxo-2H-chromen)-7-yl 2-[4-(6-bromo-4-methyl-2-oxo-2H-chromen-7-yloxycarbonyl)-3,3-dimethylbutyryloxy]ethyl ester], the “binding to / crosslinking of siRNA” value (EGFP [1]) was “could not be bound to siRNA” and the “inhibition of the siRNA effect (relative EGFP expression level)” value (EGFP [1]; [6]) was “the siRNA effect could be hardlyinhibited”.

With `[N-]=[N+]=Cc1cc(=O)oc2cc(OC(=O)CCCC(=O)OCCOC(=O)CCCC(=O)Oc3cc4oc(=O)cc(C=[N+]=[N-])c4cc3Br)c(Br)cc12` [compound 2 of the present invention, Glutaric acid (6-bromo-4-diazomethyl-2-oxo-2H-chromen)-7-yl 2-[4-(6-bromo-4-diazomethyl-2-oxo-2H-chromen-7-yloxycarbonyl)butyryloxy]ethyl ester] the “inhibition of the RNAi effect of siRNA (relative EGFP expression level)” value (EGFP [2]) was “superior effect of inhibiting the RNAi effect”.

`[N-]=[N+]=Cc1cc(=O)oc2cc(O)c(Br)cc12` [Bhc-diazo, 6-bromo-7-hydroxy-4-methyldiazocumarine] was tested, and the “binding to / crosslinking of siRNA” value (EGFP [1]) was “could not crosslink two chains of siRNA” and the “inhibition of the siRNA effect (relative EGFP expression level)” value (EGFP [1]; [6]) was “the siRNA effect could be hardlyinhibited”.

`CC(C)(CC(=O)OCCOC(=O)CC(C)(C)CC(=O)Oc1cc2oc(=O)cc(C=[N+]=[N-])c2cc1Br)CC(=O)Oc1cc2oc(=O)cc(C=[N+]=[N-])c2cc1Br` [compound 3 of the present invention, 3,3-dimethylglutaric acid (6-bromo-4-diazomethyl-2-oxo-2H-chromen)-7-yl 2-[4-(6-bromo-4-diazomethyl-2-oxo-2H-chromen-7-yloxycarbonyl)-3,3-dimethylbutyryloxy]ethyl ester] was tested, and the “inhibition of the siRNA effect (relative EGFP expression level)” value (EGFP [1]; Hela cells, 4 μM, UV irradiation not performed) was “could inhibit the siRNA effect”, the “effect of UV irradiation on the inhibition of the siRNA effect” value (EGFP [1]; Hela cells, UV (350 nm) for 3 minutes) was “the inhibition was broken down by UV irradiation” and the “inhibition of the RNAi effect of siRNA (relative EGFP expression level)” value (EGFP [2]) was “superior effect of inhibiting the RNAi effect; also recorded: most superior effect”. For the same compound, the “restoration of the inhibited RNAi effect on Lamin B1 expression by UV irradiation” value (Lamin B1; UV irradiation as in Example 8) was “could be restored”, the “inhibition of the RNAi effect of siRNA on Lamin B1 expression” value (Lamin B1; compound 3 bound to siRNA, no UV) was “the RNAi effect of siRNA could be inhibited” and the “RNAi effect of siRNA at a portion not irradiated with UV” value (EGFP [3]; Hela cells transfected with siRNA crosslinked by compound 3) was “the RNAi effect of siRNA was inhibited”. The “RNAi effect of siRNA at a portion irradiated with UV” value (EGFP [3]; Hela cells, UV (335 to 385 nm) for 1 second at the center of the well, 42 hours culture) was “the RNAi effect of siRNA was restored”, the “EGFP expression rate with control siRNA crosslinked by the compound versus control siRNA only” value (EGFP [4]) was “approximately equivalent to each other” and the “crosslinking of siRNA when the reaction time is short” value (EGFP [5]; reaction time short (0, 1, 2, 4 hours tested)) was “could not be sufficiently crosslinked”. The “reaction time at which the reaction between crosslinking agent and siRNA reached a plateau” value (EGFP [5]; reaction times 0-24 hours, no significant difference between 8 and 24 hours) was “approximately 8 hours”.
